Laboratory results published in publication PMC10353549 (ACS Pharmacology & Translational Science, 2023).
Values joined by “and” are separate entries in the source; they are usually repeats but may differ in a detail not shown here. Identical values can stand only once. Like-named read-outs stand apart in the source and are kept apart here. Marks after values point to notes of the source that are not given here. Where a SMILES comes first, the peptide text is derived from it. [ ]: non-standard residue; d: D form. The star is where a group is joined. 1Nal = N[C@@H](Cc1cccc2ccccc12)C(=O)O; Nicotinoyl(6-F) = O=C(c1ccc(F)nc1)*; Cha = N[C@@H](CC1CCCCC1)C(=O)O; NMeS = CN[C@@H](CO)C(=O)O; hSer = N[C@@H](CCO)C(=O)O; Nle = CCCC[C@H](N)C(=O)O; Octanoyl = CCCCCCCC(=O)*; Abu = CC[C@H](N)C(=O)O; Dap = NC[C@H](N)C(=O)O; Inp = O=C(O)C1CCNCC1

Experiments:
[1] = Human liver S9 fraction stability; type: in vitro ADME; settings: for half-life at 3 μM: human, pooled human liver S9 fraction
[2] = Chemical stability in buffer; type: physicochemical; settings: for chemical stability in buffer: 37 °C, over 24 h
[3] = biological target: T1, growth hormone secretagogue receptor 1a (GHSR) (Homo sapiens, UniProt Q92847); assay: biochemical
[4] = biological target: T1, growth hormone secretagogue receptor 1a (GHSR); settings: read-out: IC50 (GHSR affinity); previous work; cited from earlier work
Target sequence in this assay (Q92847 whole entry, species assumed): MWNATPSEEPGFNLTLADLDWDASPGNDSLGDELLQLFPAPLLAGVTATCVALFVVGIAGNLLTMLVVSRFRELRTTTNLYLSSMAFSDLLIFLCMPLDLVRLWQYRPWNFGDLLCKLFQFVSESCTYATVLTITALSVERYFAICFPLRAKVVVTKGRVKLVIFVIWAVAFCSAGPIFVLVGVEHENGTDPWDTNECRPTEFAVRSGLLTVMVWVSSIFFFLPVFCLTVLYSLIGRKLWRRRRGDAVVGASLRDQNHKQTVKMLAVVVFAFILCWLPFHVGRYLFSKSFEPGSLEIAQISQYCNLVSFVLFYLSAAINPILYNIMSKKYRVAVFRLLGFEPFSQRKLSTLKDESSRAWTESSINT

GHSR = GHSR (Homo sapiens, UniProt Q92847); assay: cell-based
Chain of GHSR (Q92847 whole entry, species assumed): as above

[5] = human serum; cited from earlier work
Human serum stability = type: in vitro ADME
[6] = human serum from human male AB plasma; settings: 37 °C, up to 24 h
[7] = biological target: growth hormone secretagogue receptor 1a, eYFP tagged (GHSR-eYFP) (UniProt Q92847); assay: radioligand binding
Chain of growth hormone secretagogue receptor 1a, eYFP tagged (GHSR-eYFP) (Q92847 whole entry): as the sequence (Q92847 whole entry, species assumed) above

[8] = pH 7.4, S9 t1/2, pooled human liver S9 fraction 1 mg/mL, peptide 3 μM, 37 °C, over 4 h
[9] = human liver S9 fraction, over 4 h

Compound | half-life at 3 μM [1, 8] [h] | IC50 [3] [nM] | further results
CC(C)C[C@H](NC(=O)[C@H](Cc1cccc2ccccc12)NC(=O)[C@H](CNC(=O)c1ccc(F)nc1)NC(=O)[C@H](CO)NC(=O)C1CCNCC1)C(=O)N[C@@H](CO)C(=O)N1CCC[C@H]1C(=O)N[C@H](C(N)=O)[C@@H](C)O [compound 1, [Inp^1,Dpr^3(6-FN),1Nal^4,Thr^8]ghrelin(1–8) amide] (H-[Inp]S[Dap](Nicotinoyl(6-F))[1Nal]LSPT-NH2) | 1.1 | 0.09 | time after which peptide was completely degraded in human liver S9 fraction ([1]; human liver S9 fraction, 37 °C): 4 h; S9 t1/2 ([1]; pooled human liver S9 fraction 1 mg/mL, peptide 3 μM, 37 °C, over 4 h): 1.08 h; chemical stability in buffer [2]: chemically stable; remaining at 24 h, 1 mM ([2]; phosphate-buffered saline, pH 7.4): 100%; IC50 [4]: 0.11 nM; EC50 (GHSR): 8 nM; Serum t1/2 [5]: 4.7 ^a h
CCCCCCCC(=O)NC[C@H](NC(=O)[C@H](CO)NC(=O)CN)C(=O)N[C@@H](Cc1ccccc1)C(=O)N[C@@H](CC(C)C)C(=O)N[C@@H](CO)C(=O)N1CCC[C@H]1C(=O)N[C@@H](CCC(=O)O)C(=O)O [compound 2, [Dpr^3(n-octanoyl)]ghrelin(1–8)] (H-GS[Dap](Octanoyl)FLSPE-OH) | – | – | half-life at 3 μM ([1]; pH 7.4): 0.57 h; chemical stability in buffer [2]: chemically stable; Serum t1/2 (Human serum stability; 25% human serum in PBS pH 7.4, 37 °C, peptide 1 mM, over 24 h): 2.0 h; time after which peptide was completely degraded in human serum (Human serum stability; human serum, 37 °C): 6 h
CC(C)C[C@@H](NC(=O)[C@H](Cc1cccc2ccccc12)NC(=O)[C@H](CNC(=O)c1ccc(F)nc1)NC(=O)[C@H](CO)NC(=O)C1CCNCC1)C(=O)N[C@@H](CO)C(=O)N1CCC[C@H]1C(=O)N[C@H](C(N)=O)[C@@H](C)O [compound 9, Inp-S-Dpr(6-FN)-1Nal-lSPT-NH2] (H-[Inp]S[Dap](Nicotinoyl(6-F))[1Nal][dL]SPT-NH2) | > 4 | 56.5 ± 6.5 | stability in human liver S9 fraction [1, 9]: completely stable; stability in human serum (Human serum stability; human serum, over 24 h): completely stable
CC(C)C[C@H](NC(=O)[C@H](Cc1cccc2ccccc12)NC(=O)[C@H](CNC(=O)c1ccc(F)nc1)NC(=O)[C@H](CO)NC(=O)C1CCNCC1)C(=O)N[C@H](CO)C(=O)N1CCC[C@H]1C(=O)N[C@H](C(N)=O)[C@@H](C)O [compound 10, Inp-S-Dpr(6-FN)-1Nal-LsPT-NH2] (H-[Inp]S[Dap](Nicotinoyl(6-F))[1Nal]L[dS]PT-NH2) | > 4 | 3.55 ± 0.25 | –
CC(C)C[C@H](NC(=O)[C@H](Cc1cccc2ccccc12)NC(=O)[C@H](CNC(=O)c1ccc(F)nc1)NC(=O)[C@H](CO)NC(=O)C1CCNCC1)C(=O)N[C@@H](C(=O)N1CCC[C@H]1C(=O)N[C@H](C(N)=O)[C@@H](C)O)[C@H](C)O [compound 12, Inp-S-Dpr(6-FN)-1Nal-LtPT-NH2] (H-[Inp]S[Dap](Nicotinoyl(6-F))[1Nal]L[dT]PT-NH2) | > 4 | 2.52 ± 0.32 | –
CCCC[C@H](NC(=O)[C@H](Cc1cccc2ccccc12)NC(=O)[C@H](CNC(=O)c1ccc(F)nc1)NC(=O)[C@H](CO)NC(=O)C1CCNCC1)C(=O)N[C@@H](CO)C(=O)N1CCC[C@H]1C(=O)N[C@H](C(N)=O)[C@@H](C)O [compound 13, Inp-S-Dpr(6-FN)-1Nal-Nle-SPT-NH2] (H-[Inp]S[Dap](Nicotinoyl(6-F))[1Nal][Nle]SPT-NH2) | 0.55 | 1.5 ± 0.27 | –
C[C@@H](O)[C@H](NC(=O)[C@@H]1CCCN1C(=O)[C@H](CO)NC(=O)[C@H](CC1CCCCC1)NC(=O)[C@H](Cc1cccc2ccccc12)NC(=O)[C@H](CNC(=O)c1ccc(F)nc1)NC(=O)[C@H](CO)NC(=O)C1CCNCC1)C(N)=O [compound 14, Inp-S-Dpr(6-FN)-1Nal-Cha-SPT-NH2] (H-[Inp]S[Dap](Nicotinoyl(6-F))[1Nal][Cha]SPT-NH2) | 1.18 | 1.88 ± 0.67 | –
CC(C)C[C@H](NC(=O)[C@H](Cc1cccc2ccccc12)NC(=O)[C@H](CNC(=O)c1ccc(F)nc1)NC(=O)[C@H](CO)NC(=O)C1CCNCC1)C(=O)N[C@@H](CS)C(=O)N1CCC[C@H]1C(=O)N[C@H](C(N)=O)[C@@H](C)O [compound 15, Inp-S-Dpr(6-FN)-1Nal-LCPT-NH2] (H-[Inp]S[Dap](Nicotinoyl(6-F))[1Nal]LCPT-NH2) | 0.95 | 7.15 ± 0.18 | –
CC(C)C[C@H](NC(=O)[C@H](Cc1cccc2ccccc12)NC(=O)[C@H](CNC(=O)c1ccc(F)nc1)NC(=O)[C@H](CO)NC(=O)C1CCNCC1)C(=O)N[C@H](C(=O)N1CCC[C@H]1C(=O)N[C@H](C(N)=O)[C@@H](C)O)[C@@H](C)O [compound 16, Inp-S-Dpr(6-FN)-1Nal-LTPT-NH2] (H-[Inp]S[Dap](Nicotinoyl(6-F))[1Nal]LTPT-NH2) | 1.25 | 0.62 ± 0.1 | –
CC(C)C[C@H](NC(=O)[C@H](Cc1cccc2ccccc12)NC(=O)[C@H](CNC(=O)c1ccc(F)nc1)NC(=O)[C@H](CO)NC(=O)C1CCNCC1)C(=O)N[C@@H](CCO)C(=O)N1CCC[C@H]1C(=O)N[C@H](C(N)=O)[C@@H](C)O [compound 17, Inp-S-Dpr(6-FN)-1Nal-L-Hse-PT-NH2] (H-[Inp]S[Dap](Nicotinoyl(6-F))[1Nal]L[hSer]PT-NH2) | 1.4 | 1.43 ± 0.08 | –
CC(C)C[C@H](NC(=O)[C@H](Cc1cccc2ccccc12)NC(=O)[C@H](CNC(=O)c1ccc(F)nc1)NC(=O)[C@H](CO)NC(=O)C1CCNCC1)C(=O)N[C@@H](CC(N)=O)C(=O)N1CCC[C@H]1C(=O)N[C@H](C(N)=O)[C@@H](C)O [compound 18, Inp-S-Dpr(6-FN)-1Nal-LNPT-NH2] (H-[Inp]S[Dap](Nicotinoyl(6-F))[1Nal]LNPT-NH2) | > 4 | 1.9 ± 0.56 | –
CC(C)C[C@H](NC(=O)[C@H](Cc1cccc2ccccc12)NC(=O)[C@H](CNC(=O)c1ccc(F)nc1)NC(=O)[C@H](CO)NC(=O)C1CCNCC1)C(=O)N[C@@H](CCC(N)=O)C(=O)N1CCC[C@H]1C(=O)N[C@H](C(N)=O)[C@@H](C)O [compound 19, Inp-S-Dpr(6-FN)-1Nal-LQPT-NH2] (H-[Inp]S[Dap](Nicotinoyl(6-F))[1Nal]LQPT-NH2) | 2.03 | 1.21 ± 0.12 | –
CC[C@H](NC(=O)[C@H](CC(C)C)NC(=O)[C@H](Cc1cccc2ccccc12)NC(=O)[C@H](CNC(=O)c1ccc(F)nc1)NC(=O)[C@H](CO)NC(=O)C1CCNCC1)C(=O)N1CCC[C@H]1C(=O)N[C@H](C(N)=O)[C@@H](C)O [compound 20, Inp-S-Dpr(6-FN)-1Nal-L-Abu-PT-NH2] (H-[Inp]S[Dap](Nicotinoyl(6-F))[1Nal]L[Abu]PT-NH2) | 0.46 | 2.54 ± 0.65 | EC50 (GHSR): 30 nM
CC(C)C[C@H](NC(=O)[C@H](Cc1cccc2ccccc12)NC(=O)[C@H](CNC(=O)c1ccc(F)nc1)NC(=O)[C@H](CO)NC(=O)C1CCNCC1)C(=O)N(C)[C@@H](CO)C(=O)N1CCC[C@H]1C(=O)N[C@H](C(N)=O)[C@@H](C)O [compound 22, Inp-S-Dpr(6-FN)-1Nal-L-S(N-Me)-PT-NH2] (H-[Inp]S[Dap](Nicotinoyl(6-F))[1Nal]L[NMeS]PT-NH2) | > 4 | 1.32 ± 0.58 | stability in human liver S9 fraction [1, 9]: stable; stability in human serum (Human serum stability; human serum, over 24 h): stable; EC50 (GHSR): 119 nM
Inp-S-Dpr(6-FN)-1Nal-L-Dpr-PT-NH2 | – | – | not cleaved [6]: full stability over 24 h
Inp-S-Dpr(6-FN)-1Nal-L-S(N-Me)-PT-NH2 | – | – | not cleaved [6]: stable; serum t1/2 >24 h
Inp-S-Dpr(6-FN)-1Nal-LSPT-NH2 | – | – | cleaved bond [6]: Leu5-Ser6, first_seen, 30 min; fragment found [6]: 4; 1Nal-L-OH and 5; Inp-S-Dpr(6-FNA)-OH
Inp-S-Dpr(6-FN)-1Nal-lSPT-NH2 | – | – | not cleaved [6]: completely stable; serum t1/2 >24 h
acylated human ghrelin(1–28) (ligand) | – | – | IC50 [7]: 2.48 nM
ghrelin(1–8) analogue 11, Inp-S-Dpr(6-FN)-1Nal-lsPT-NH2 (peptide) | – | – | IC50 [7]: 11.5 nM
ghrelin(1–8) analogue 21, Inp-S-Dpr(6-FN)-1Nal-L-Dpr-PT-NH2 (peptide) | – | – | IC50 [7]: 0.32 nM
ghrelin(1–8) analogue 23, Inp-S-Dpr(6-FN)-1Nal-β-homoL-SPT-NH2 (peptide) | – | – | IC50 [7]: 2.11 nM
